From the Kinase Knowledgebase extract (Sharma et al. 2016) come the findings set out here.

Structures are written as SMILES. Where only a bound is given, the exact number is not on record here.

Assay in all cases: Enzyme Assay
For experiment [1], the target named is PIK3CB (Human) (UniProt P42338).
Experiment [2] concerns the target PIK3CG (human) (UniProt P48736).
In experiment [3] the target is PIK3CD (Human) (UniProt O00329).
PIK3CD (Human), sequence (O00329 whole entry, looked up): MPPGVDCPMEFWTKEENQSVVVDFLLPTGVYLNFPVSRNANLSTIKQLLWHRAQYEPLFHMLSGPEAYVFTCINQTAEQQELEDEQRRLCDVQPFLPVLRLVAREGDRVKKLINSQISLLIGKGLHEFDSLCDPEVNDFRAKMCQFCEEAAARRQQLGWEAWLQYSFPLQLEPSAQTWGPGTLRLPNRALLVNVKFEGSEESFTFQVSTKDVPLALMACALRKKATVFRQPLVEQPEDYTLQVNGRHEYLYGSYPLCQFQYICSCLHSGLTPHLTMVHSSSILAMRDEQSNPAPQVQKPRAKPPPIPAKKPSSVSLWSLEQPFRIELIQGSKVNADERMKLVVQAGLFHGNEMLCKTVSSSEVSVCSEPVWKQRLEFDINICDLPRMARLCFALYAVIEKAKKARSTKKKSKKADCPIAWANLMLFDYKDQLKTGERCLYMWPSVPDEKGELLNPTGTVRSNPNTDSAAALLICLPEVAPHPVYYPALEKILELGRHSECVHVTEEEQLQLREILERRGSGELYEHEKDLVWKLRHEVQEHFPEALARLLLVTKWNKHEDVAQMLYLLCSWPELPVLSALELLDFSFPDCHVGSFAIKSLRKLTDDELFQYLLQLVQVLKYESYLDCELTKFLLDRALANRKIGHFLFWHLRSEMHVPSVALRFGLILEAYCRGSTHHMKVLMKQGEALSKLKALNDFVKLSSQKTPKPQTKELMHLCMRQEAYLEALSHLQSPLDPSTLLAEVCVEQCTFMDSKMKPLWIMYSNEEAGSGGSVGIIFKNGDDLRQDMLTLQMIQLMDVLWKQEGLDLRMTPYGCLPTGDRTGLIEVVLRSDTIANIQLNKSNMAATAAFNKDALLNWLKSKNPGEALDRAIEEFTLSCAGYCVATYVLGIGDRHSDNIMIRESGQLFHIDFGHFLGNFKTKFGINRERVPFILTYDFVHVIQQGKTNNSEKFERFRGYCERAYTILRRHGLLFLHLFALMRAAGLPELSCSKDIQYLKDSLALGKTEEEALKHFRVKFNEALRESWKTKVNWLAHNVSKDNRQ

PIK3CG (human), sequence (P48736 whole entry, looked up): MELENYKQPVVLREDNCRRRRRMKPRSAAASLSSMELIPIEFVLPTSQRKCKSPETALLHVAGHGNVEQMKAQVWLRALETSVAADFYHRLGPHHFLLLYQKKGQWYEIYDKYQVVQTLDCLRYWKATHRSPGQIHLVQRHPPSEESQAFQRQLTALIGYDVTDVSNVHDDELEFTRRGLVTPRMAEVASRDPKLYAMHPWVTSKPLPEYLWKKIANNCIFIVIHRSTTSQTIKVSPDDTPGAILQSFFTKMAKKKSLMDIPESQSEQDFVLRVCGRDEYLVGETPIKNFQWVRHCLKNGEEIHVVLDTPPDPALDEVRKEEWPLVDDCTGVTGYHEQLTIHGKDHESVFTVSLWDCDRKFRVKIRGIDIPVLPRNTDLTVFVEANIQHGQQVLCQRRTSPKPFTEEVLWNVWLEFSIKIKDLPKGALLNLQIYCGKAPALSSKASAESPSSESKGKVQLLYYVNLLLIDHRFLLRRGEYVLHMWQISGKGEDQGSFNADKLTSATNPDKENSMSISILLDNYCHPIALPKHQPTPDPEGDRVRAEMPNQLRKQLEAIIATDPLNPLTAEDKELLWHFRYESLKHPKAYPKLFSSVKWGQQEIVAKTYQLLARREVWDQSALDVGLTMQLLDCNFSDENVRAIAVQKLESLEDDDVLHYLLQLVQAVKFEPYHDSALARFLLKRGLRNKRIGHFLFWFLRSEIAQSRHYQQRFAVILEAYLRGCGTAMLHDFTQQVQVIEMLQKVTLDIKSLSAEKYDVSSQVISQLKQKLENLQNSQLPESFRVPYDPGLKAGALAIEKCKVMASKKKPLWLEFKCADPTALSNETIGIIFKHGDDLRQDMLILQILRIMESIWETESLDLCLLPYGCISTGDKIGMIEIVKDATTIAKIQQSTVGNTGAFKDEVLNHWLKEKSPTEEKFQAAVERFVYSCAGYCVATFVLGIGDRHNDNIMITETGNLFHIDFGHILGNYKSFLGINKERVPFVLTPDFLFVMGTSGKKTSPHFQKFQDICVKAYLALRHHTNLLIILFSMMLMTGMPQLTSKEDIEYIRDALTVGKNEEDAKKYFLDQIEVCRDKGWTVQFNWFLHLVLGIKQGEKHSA
PIK3CB (Human), sequence (P42338 whole entry, looked up): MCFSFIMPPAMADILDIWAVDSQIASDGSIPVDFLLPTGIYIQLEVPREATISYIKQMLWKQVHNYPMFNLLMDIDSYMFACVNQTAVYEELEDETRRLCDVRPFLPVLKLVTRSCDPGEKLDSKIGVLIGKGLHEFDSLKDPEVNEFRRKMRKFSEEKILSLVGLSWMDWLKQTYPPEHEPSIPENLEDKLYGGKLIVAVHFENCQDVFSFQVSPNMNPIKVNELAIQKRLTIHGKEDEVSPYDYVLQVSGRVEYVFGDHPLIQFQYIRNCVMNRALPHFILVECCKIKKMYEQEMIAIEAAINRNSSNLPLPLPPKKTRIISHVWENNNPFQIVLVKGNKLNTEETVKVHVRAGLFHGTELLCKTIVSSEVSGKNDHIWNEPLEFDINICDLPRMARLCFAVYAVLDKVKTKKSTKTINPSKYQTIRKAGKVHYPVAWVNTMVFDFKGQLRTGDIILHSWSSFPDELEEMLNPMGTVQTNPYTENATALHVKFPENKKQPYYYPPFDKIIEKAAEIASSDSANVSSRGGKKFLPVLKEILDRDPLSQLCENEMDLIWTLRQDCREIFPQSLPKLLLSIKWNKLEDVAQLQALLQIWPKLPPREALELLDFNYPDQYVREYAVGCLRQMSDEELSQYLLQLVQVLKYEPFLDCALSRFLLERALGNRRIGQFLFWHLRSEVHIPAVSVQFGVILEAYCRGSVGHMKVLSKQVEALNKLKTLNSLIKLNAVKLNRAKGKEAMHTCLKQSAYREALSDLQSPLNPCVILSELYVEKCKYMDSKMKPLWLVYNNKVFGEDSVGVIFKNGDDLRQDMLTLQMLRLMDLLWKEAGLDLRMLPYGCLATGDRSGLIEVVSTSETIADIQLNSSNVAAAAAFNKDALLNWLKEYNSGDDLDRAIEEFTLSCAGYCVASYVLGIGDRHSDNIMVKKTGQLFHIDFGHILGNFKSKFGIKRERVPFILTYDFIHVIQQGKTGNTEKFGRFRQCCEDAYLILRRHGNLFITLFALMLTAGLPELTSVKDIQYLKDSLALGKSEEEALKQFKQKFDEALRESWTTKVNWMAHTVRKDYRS

As to `C[C@H](Nc1ncnc2[nH]nnc12)c1nc2c(F)cccc2c(=O)n1-c1cnc(N)cn1`, the IC50 in experiment [1] and in experiment [2] was over 10000 nM each time.

For the molecule `C[C@H](Nc1ncnc(N)c1C#N)c1nc2c(F)ccc(Cl)c2c(=O)n1-c1cnc(N)cn1`, the IC50 (commonly the concentration that gives 50% inhibition) in experiment [2] was over 10000 nM.

On to `Nc1cnc(-n2c([C@@H](Nc3ncnc(N)c3Cl)C3CC3)nc3c(Cl)ccc(Cl)c3c2=O)cn1`, for which the IC50 was 1100 nM in experiment [1], 26 nM in experiment [3] and over 10000 nM in experiment [2].

On to `C[C@H](Nc1nc(N)nc(N)c1Cl)c1nc2c(F)cc(F)cc2c(=O)n1-c1cnc(N)cn1`, for which the figures for the IC50 in experiment [1], in experiment [3] and in experiment [2] were 530 nM, 780 nM and over 10000 nM, respectively.

As for `Nc1cnc(-n2c([C@@H](Nc3nc(N)nc(N)c3Cl)C3CC3)nc3cccc(Cl)c3c2=O)cn1`, in experiment [2], the IC50 is over 10000 nM.

For the molecule `C[C@H](Nc1ncnc(N)c1Cl)c1nc2cccc(Cl)c2c(=O)n1-c1cnc(N)cn1`, the results for the IC50 in experiment [1], in experiment [3] and in experiment [2] were 360 nM, 54 nM and over 10000 nM, respectively.

As for `Nc1cnc(-n2c([C@@H](Nc3nc(N)nc(N)c3Cl)C3CC3)nc3c(Cl)ccc(Cl)c3c2=O)cn1`, the IC50 in experiment [2] is over 10000 nM.

For the molecule `C[C@H](Nc1nc(N)nc(N)c1Cl)c1nc2c(Cl)ccc(Cl)c2c(=O)n1-c1cnc(N)cn1`, the IC50 in experiment [2] is over 10000 nM.

Molecule `C[C@H](Nc1nc(N)nc(N)c1Cl)c1nc2c(F)ccc(Cl)c2c(=O)n1-c1cnc(N)cn1` had an IC50 in experiment [2] of over 10000 nM.

For the molecule `C[C@H](Nc1nc(N)nc(C(F)F)c1C#N)c1nc2c(Cl)cc(F)cc2c(=O)n1-c1cnc(N)cn1`, the IC50 in experiment [1] was 200 nM; in experiment [3] it was 340 nM; in experiment [2], over 10000 nM.

In the case of `C[C@H](Nc1nc(N)nc(N)c1Cl)c1nc2c(Cl)cc(F)cc2c(=O)n1-c1cnc(N)cn1`, the IC50 in experiment [1] was 570 nM; in experiment [3] it was 500 nM; in experiment [2], over 10000 nM.

`C[C@H](Nc1ncnc2occc12)c1nc2c(F)ccc(Cl)c2c(=O)n1-c1cnc(N)cn1` returned an IC50 in experiment [2] of over 10000 nM.

On to `Nc1cnc(-n2c([C@@H](Nc3ncnc(N)c3Cl)C3CC3)nc3cccc(Cl)c3c2=O)cn1`, for which the IC50 in experiment [1] was 720 nM; in experiment [2], over 10000 nM.
